Results reported in US8980848B2, “Flavonoid dimers and their use” (The Hong Kong Polytechnic University, priority 2010, dated 2015).
Read-outs that look alike come from different tables or passages of the source.

What was measured:
Raw264.7 cells = assay: Cytotoxicity, mouse macrophage Raw264.7; assay type: cell-based
Experimental: (§1) (a) Mouse Macrophage Raw 264.7 and Primary Mouse PEM Cells. The cytotoxicity assay of reference antileishmanial compounds and the compounds of this invention was performed against mouse macrophage cell line, Raw 264.7 and primary mouse PEM cells in order to calculate the therapeutic index (IC50 value for cytotoxicity of the compounds divided by IC50 value for antileishmanial activity of the compounds). The cells were grown in supplemented DMEM media in an atmosphere of 95% air with 5% CO2 at 37° C. In brief, Raw264.7 cells and PEM cells were seeded into 96-well flat bottom microtiter plate at 1×10^4cells and 2×10^4 cells per well in a final volume of 100 μL media, respectively. A graded dose of flavonoid dimers or antileishmanials was added into wells. The plate was incubated at 37° C. for 72 hrs at the atmosphere 5% CO2 in the air. The % of survivors was determined.

[1] = Tumor cell line cytotoxicity of flavonoid dimers, LCC6; assay type: cell-based, human; conditions: human, LCC6 cells, IC50 of compound alone
How it was run: (§2)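 LCC6, LCC6MDR and L929 cells seeded at 1×10^4 cells/well and exposed to graded doses of flavonoid dimers. Incubation 72 hrs at 37° C., 5% CO2. Read-out: % survivors.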

[2] = test system: Ld39 promastigotes (SSG-resistant); assay: In vitro anti-promastigote activity, Ld39; assay type: cell-based, Leishmania donovani; conditions: read-out: Anti-promastigotes activity (IC50, μM) Ld39
Experimental: (§3) Cell Lines and Cell Culture. Promastigotes of Leishmania donovani (wild type LdAG83, pentamidine-resistant LdAG83-PentR50, and SSG-resistant Ld39) and Leishmania major [MHOM/IL/67/JERICHO II (Lm50122), from ATCC] were used in this study.
(§4) In Vitro Anti-Promastigote Activity. The viability of promastigotes was determined by the Cell Titer 96° Aqueous Assay (Promega) that employs a tetrazolium compound (MTS, 2-(4,5-Dimethylthiazol-2-yl-)-5-[3-(carboxymethoxy)phenyl]-2-(4-sulfophenyl)-2H-tetrazolium) and electron coupling reagent, phenazine methosulfate (PMS).^7 Promastigotes were seeded into 96-well flat bottom microtiter plate at 1×10^5 cells per well in a final volume of 100 μL medium and incubated with a series concentration of synthetic flavonoid dimers or known antileishmanials. The parasites were incubated at 27° C. for 72 hrs. Fresh solution of 2 mg/mL MTS and 0.92 mg/mL PMS were prepared in a ratio of 20:1 (MTS:PMS). After 72 hrs incubation, 10 μL of MTS:PMS mixture was added into each well of microtiter plate. The plate was then incubated at 27° C. for 4 hrs for color development. After 4 hrs incubation, the OD values were determined at 490 nm using automatic microtiter plate reader (Bio-Rad).

[3] = Tumor cell line cytotoxicity of flavonoid dimers, LCC6MDR; assay type: cell-based, human; conditions: human, LCC6MDR cells, IC50 of compound alone
How it was run: as §2

Leishmania promastigotes = assay: Anti-promastigote activity over the Leishmania strains; assay type: cell-based, Leishmania donovani, Leishmania major; conditions: for IC50: different Leishmania strains, read-out: Anti-promastigote IC50, range over strains
Experimental: as §3, §4

[4] = test system: LdAG83 promastigotes (wild type); assay: In vitro anti-promastigote activity, LdAG83; assay type: cell-based, Leishmania donovani; conditions: read-out: Anti-promastigotes activity (IC50, μM) LdAG83
Experimental: as §3, §4

Pgp (LCC6MDR cells) = Pgp (LCC6MDR cells) (Homo sapiens, UniProt P08183); assay: Cell proliferation assay: Pgp-modulating activity, reversal of anticancer drug resistance in LCC6MDR cells; conditions: for EC50: EC50 of compounds for reversing anticancer drug resistance (nM), Paclitaxel; for Therapeutic index: IC50 of compounds for L929/EC50 of compounds for lowering paclitaxel drug resistance; for RF (Relative Fold), cpd at 0.5 μM: RF = (IC50 without modulator)/(IC50 with 0.5 μM modulator), paclitaxel
Experimental: Cell Proliferation Assay. 6,000 cells of LCC6 or LCC6MDR and anticancer drugs (paclitaxel, vinblastine, vincristine, doxorubicin and mitoxantrone) were mixed with or without modulators to a final volume of 200 μL in each well of 96-well plates. […] The plates were then incubated for 5 days at 37° C. […] IC50 values were calculated from the dose-response curves of MTS assays (Prism 4.0).

[5] = Cytotoxicity of flavonoid dimers, L929 mouse fibroblast; assay type: cell-based; conditions: mouse, L929 fibroblast cells, IC50 of compound alone, 72 hrs, mouse fibroblast
How it was run: as §2

[6] = test system: LdAG83PentR50 promastigotes (pentamidine-resistant); assay: microbe, parasite or virus in culture; assay type: cell-based, Leishmania donovani; conditions: read-out: Anti-promastigotes activity (IC50, μM) LdAG83PentR50
Experimental: as §3
No pentamidine or sodium stibogluconate was added to the L. donovani wild type (LdAG83) and L. major wild type (Lm50122). The mouse macrophage cell line, Raw264.7, was used for the determination of the relative toxicity of the compounds of the invention. […] They were maintained at 37° C. in a humidified atmosphere with 5% CO2. The cells were split constantly after a confluent monolayer has been formed. To split cells, the plate was washed briefly with PBS, treated with 0.05% trypsin-EDTA and harvested by centrifugation.
as §4

[7] = Cytotoxicity over LCC6, LCC6MDR and L929 cell lines; assay type: cell-based, human, mouse; conditions: human, cancer lines LCC6, LCC6MDR and/or L929
Experimental: (b) Tumor Cell Line Cytotoxicity. The tumor cytotoxicity assays of flavonoid dimers were performed against LCC6, LCC6MDR and L929 cell lines. The cells were grown in supplemented DMEM media in an atmosphere of 95% air and 5% CO2 at 37° C. In brief, LCC6, LCC6MDR and L929 cells were seeded into 96-well flat bottom microtiter plate at 1×10^4 cells per well in a final volume of 100 μL media, respectively. A graded dose of flavonoid dimers was added into wells. The plate was incubated at 37° C. for 72 hrs at the atmosphere 5% CO2 in the air. The % of survivors was determined.

L929 cells = assay: Cytotoxicity of flavonoid dimers, L929 mouse fibroblast; assay type: cell-based; conditions: IC50 of compound alone, 72 hrs, mouse fibroblast; read-out: Cytotoxicity (μM) L929
How it was run: as §2

Lm50122 promastigotes = assay: In vitro anti-promastigote activity, Lm50122; assay type: cell-based, Leishmania major; conditions: Leishmania major, 72 h, read-out: Anti-promastigotes activity (IC50, μM) Lm50122
Experimental: as §3, §4

PEM cells = assay: Cytotoxicity, primary mouse peritoneal elicited macrophage (PEM); assay type: cell-based
Experimental: as §1

Ld39 amastigotes = assay: In vitro anti-amastigote activity, Ld39 amastigotes in mouse PEM; conditions: for IC50: Leishmania donovani, in Mus musculus
Experimental: Peritoneal elicited macrophages (PEM) from mouse were obtained as previously described. A round cover slip (12 mm in diameter) was placed into each well of 24-well culture plate. Mouse macrophages were resuspended in supplemented DMEM media containing 10% heat inactivated fetal bovine serum (v/v), 100 U/mL penicillin and 100 μg/mL streptomycin and seeded into each well at a cell density of 1×10^5 cells per 500 μL. Macrophages were allowed to attach overnight and the non-adherent cells were removed by gentle washing twice with unsupplemented DMEM media. […] Non-internalized promastigotes were removed by washing with unsupplemented DMEM media for two times. Infected macrophages were further incubated in 500 μL supplemented DMEM media in the presence or absence of flavonoid dimers or known antileishmanials for 72 hrs at 37° C. After incubation, the cover slips were stained with Giemsa and the amastigotes inside each macrophage (100 macrophages per treatment) were counted under microscope. The percentage of macrophages infected and number of amastigotes per 100 macrophages was enumerated.
The % of infected macrophage and the number of amastigotes per 100 macrophages were counted by staining with Giemsa.

LCC6 cells = assay: Tumor cell line cytotoxicity of flavonoid dimers, LCC6; assay type: cell-based, human; conditions: IC50 of compound alone, 72 hrs
How it was run: as §2

LCC6MDR cells = assay: Tumor cell line cytotoxicity of flavonoid dimers, LCC6MDR; assay type: cell-based, human; conditions: IC50 of compound alone, 72 hrs
How it was run: as §2

[8] = Mus musculus, Macrophage, Table 7, cytotoxicity
[9] = cytotoxicity, primary mouse macrophage, 72 hrs
[10] = 72 h, read-out: Ld39 (IC50, mM)
[11] = Leishmania donovani, 72 h, 3 days at 27° C., MTS

Sequence of Pgp (LCC6MDR cells) (P08183 whole entry): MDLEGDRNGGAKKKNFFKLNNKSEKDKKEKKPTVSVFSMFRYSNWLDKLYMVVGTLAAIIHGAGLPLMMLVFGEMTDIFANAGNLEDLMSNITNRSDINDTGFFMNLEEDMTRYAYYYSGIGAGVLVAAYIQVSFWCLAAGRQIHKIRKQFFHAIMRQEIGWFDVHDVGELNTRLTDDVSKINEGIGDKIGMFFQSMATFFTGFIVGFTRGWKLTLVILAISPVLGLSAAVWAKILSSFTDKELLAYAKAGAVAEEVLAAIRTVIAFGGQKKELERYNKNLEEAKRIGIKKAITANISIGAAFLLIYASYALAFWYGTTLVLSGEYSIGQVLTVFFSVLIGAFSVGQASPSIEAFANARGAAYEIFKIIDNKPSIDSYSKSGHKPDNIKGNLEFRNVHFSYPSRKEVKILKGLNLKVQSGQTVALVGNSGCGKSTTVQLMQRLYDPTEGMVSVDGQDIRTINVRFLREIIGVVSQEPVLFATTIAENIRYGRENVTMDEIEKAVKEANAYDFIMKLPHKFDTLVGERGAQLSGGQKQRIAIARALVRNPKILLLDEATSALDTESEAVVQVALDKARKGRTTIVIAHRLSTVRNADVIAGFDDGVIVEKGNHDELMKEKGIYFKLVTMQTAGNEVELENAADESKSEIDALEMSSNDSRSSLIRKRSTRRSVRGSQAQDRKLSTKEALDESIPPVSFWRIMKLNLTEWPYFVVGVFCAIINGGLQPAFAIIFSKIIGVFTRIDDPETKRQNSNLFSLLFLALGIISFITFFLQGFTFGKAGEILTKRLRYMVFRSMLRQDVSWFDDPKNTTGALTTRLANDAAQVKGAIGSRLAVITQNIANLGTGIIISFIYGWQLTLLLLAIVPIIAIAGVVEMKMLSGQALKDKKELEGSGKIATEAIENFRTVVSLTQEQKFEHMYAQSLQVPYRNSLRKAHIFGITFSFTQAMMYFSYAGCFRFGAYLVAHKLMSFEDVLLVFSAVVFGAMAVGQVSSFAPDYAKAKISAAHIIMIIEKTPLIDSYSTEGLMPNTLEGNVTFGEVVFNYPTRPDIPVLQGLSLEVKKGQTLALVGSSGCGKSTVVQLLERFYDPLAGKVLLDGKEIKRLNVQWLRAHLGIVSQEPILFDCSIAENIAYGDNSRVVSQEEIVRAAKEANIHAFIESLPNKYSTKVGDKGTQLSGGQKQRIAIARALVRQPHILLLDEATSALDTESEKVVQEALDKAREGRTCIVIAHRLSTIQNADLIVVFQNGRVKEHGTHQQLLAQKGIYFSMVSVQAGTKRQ

Row | Compound | IC50 (Raw264.7 cells; Mus musculus, RAW264.7, 72 h) [µM] | IC50 at 72 h [1] [µM] | IC50 ([2]; Leishmania donovani, 72 h) [µM] | IC50 at 72 h [3] [µM] | IC50 (Leishmania promastigotes) [µM] | IC50 ([4]; Leishmania donovani, 72 h) [µM] | EC50 (Pgp (LCC6MDR cells); LCC6MDR) [nM] | Therapeutic index (Pgp (LCC6MDR cells)) | RF (Relative Fold), cpd at 0.5 μM (Pgp (LCC6MDR cells); LCC6MDR) | IC50 at 72 h [5] [µM] | IC50 ([6]; Leishmania donovani, 72 h) [µM] | IC50 (Lm50122 promastigotes) [µM] | IC50 (PEM cells; [8]) [µM] | IC50 (PEM cells; [9]) [µM] | IC50 (Ld39 amastigotes; [10]) [mM] | IC50 [2, 11] [µM] | IC50 (Lm50122 promastigotes; 3 days at 27° C., MTS) [µM] | other results
1 | O=c1cc(-c2ccc(OCCOCCNCCOCCOc3ccc(-c4cc(=O)c5ccccc5o4)cc3)cc2)oc2ccccc12 [Compound 12a, 1,13-Bis[4′-(4H-chromen-4-on-2-yl)phenyl]-1,4,10,13-tetraoxa-7-azamidecane] | < 4 | 3.3 ± 1 | 2.3 | 2.4 ± 0.7 | < 4 | 3.3 | 305 ± 35 | 19.3 | (72.9) | 5.9 ± 0.6 | 1.1 | – | – | – | – | – | – | IC50 (Raw264.7 cells; 72 hrs, listed as 12): 2.1 ± 0.9 µM
2 | CC(C)(C)OC(=O)N(CCOCCOc1ccc(-c2cc(=O)c3ccccc3o2)cc1)CCOCCOc1ccc(-c2cc(=O)c3ccccc3o2)cc1 [Compound 16a, 1,13-Bis[4′-(4H-chromen-4-on-2-yl)phenyl]-N-(tert-butyloxycarbonyl)-1,4,10,13-tetraoxa-7-azamidecane] | > 100 | 8 ± 2.5 | 1.6 | 6.2 ± 0.8 | – | 3.2 | 320 ± 40 | 34.7 | (11.1) | < 11.1 | 1.1 | – | – | – | – | – | – | IC50 at 72 h [7]: < 8 µM; Ability to restore paclitaxel sensitivity, fold higher than verapamil (Pgp (LCC6MDR cells); 1.0 μM, LCC6MDR): 24 fold; IC50 (L929 cells): 11.1 µM
3 | O=c1cc(-c2ccc(OCCOCCN(CCOCCOc3ccc(-c4cc(=O)c5ccccc5o4)cc3)Cc3ccc([N+](=O)[O-])cc3)cc2)oc2ccccc12 [Compound 19, 1,13-Bis[4′-(4H-chromen-4-on-2-yl)phenyl]-N-(4-nitrobenzyl)-1,4,10,13-tetraoxa-7-azamidecane] | 70.3 ± 9.7 | 86.8 ± 1.8 | > 100 | > 90 | – | > 100 | 189 ± 1 | 465.6 | – | 88 ± 6.1 | – | > 100 | – | – | – | – | – | IC50 at 72 h ([7]; mouse, LCC6MDR and L929 cell lines): > 90 µM
4 | O=c1cc(-c2ccc(OCCOCCN(CCOCCOc3ccc(-c4cc(=O)c5ccccc5o4)cc3)Cc3ccncc3)cc2)oc2ccccc12 [Compound 21, 1,13-Bis[4′-(4H-chromen-4-on-2-yl)phenyl]-N-(4-pyridylmethyl)-1,4,10,13-tetraoxa-7-azamidecane] | > 100 | > 100 | 0.19 ± 0.03 | > 100 | 0.13 to 0.35 | 0.18 ± 0.02 | – | – | (6.9) | 26.4 ± 2.7 | 0.13 ± 0.04 | 0.35 ± 0.07 | > 88 | > 88 | 0.00063 ± 0.00012 | – | – | Fold lower anti L. donovani promastigote activity than amphotericin B (Leishmania promastigotes; L. donovani): 2 fold; % of macrophage infected (Ld39 amastigotes; 5 μM, solvent control 100%): 20%; Number of amastigotes per 100 macrophages (Ld39 amastigotes; 5 μM, solvent control 887): 48; IC50 (Ld39 amastigotes; read-out: IC50 against Ld39 amastigotes): 0.00063 mM
5 | O=c1cc(-c2ccc(OCCOCCN(CCOCCOc3ccc(-c4cc(=O)c5ccccc5o4)cc3)Cc3ccccn3)cc2)oc2ccccc12 [Compound 22, 1,13-Bis[4′-(4H-chromen-4-on-2-yl)phenyl]-N-(2-pyridylmethyl)-1,4,10,13-tetraoxa-7-azamidecane] | 53 ± 12.7 | 10 ± 1.2 | 2.4 ± 1 | 29.7 ± 16.4 | 1.8 to 2.4 | 2.3 ± 0.8 | – | – | (15.8) | 10 | – | 1.8 ± 0.6 | – | – | – | – | – | Fold lower leishmanicidal activity than compound 21 (Leishmania promastigotes): about 10 fold
6 | O=C(O)CCC(=O)N(CCOCCOc1ccc(-c2cc(=O)c3ccccc3o2)cc1)CCOCCOc1ccc(-c2cc(=O)c3ccccc3o2)cc1 [Compound 23a, 1,13-Bis[4′-(4H-chromen-4-on-2-yl)phenyl]-N-(4-hydroxy-1,4-dioxobutyl)-1,4,10,13-tetraoxa-7-azamidecane] | – | – | – | – | – | – | – | – | (1.1) | – | – | – | – | – | – | – | – | IC50 (Raw264.7 cells; 72 hrs): 65 µM; IC50 (LCC6 cells): 78.4 ± 8.1 µM; IC50 ([2]; 3 days at 27° C., MTS): > 100 µM; IC50 (LCC6MDR cells): > 100 µM; IC50 ([4]; 3 days at 27° C., MTS): > 100 µM; IC50 ([6]; 3 days at 27° C., MTS): 27 µM
7 | CCCCCCCCCCCCCCCCOP(=O)([O-])OCC[N+](C)(C)C [Miltefosine, reference compound] | 20 | – | – | – | 4.3 to 17.3 | – | – | – | – | – | 9.3 ± 2.4 | – | 75.3 ± 9.4 | 75.3 ± 9.4 | 0.016 ± 0.0064 | 17.3 ± 2.1 | 9.8 ± 2.3 | –
8 | NC[C@@H]1O[C@H](O[C@H]2[C@@H](O)[C@H](O[C@@H]3[C@@H](O)[C@H](N)C[C@H](N)[C@H]3O[C@H]3O[C@H](CO)[C@@H](O)[C@H](O)[C@H]3N)O[C@@H]2CO)[C@H](N)[C@@H](O)[C@@H]1O [Paromomycin, paromomycin, reference compound] | > 100 | – | – | – | 24.5 to 94.5 | – | – | – | – | – | 85.5 ± 13.5 | – | > 100 | > 100 | 0.041 | 24.5 ± 2.4 | 94.5 ± 5.5 | IC50 [4, 11]: 62.6 ± 9.5 µM
9 | N=C(N)c1ccc(OCCCCCOc2ccc(C(=N)N)cc2)cc1 [Pentamidine, reference compound] | 30 | – | – | – | 5.3 to 74.7 | – | – | – | – | – | 74.7 | – | 30.4 ± 10.5 | 30.4 | > 0.03 | 5.3 ± 0.8 | 7.7 ± 1 | IC50 [4, 11]: 16.2 µM
